In data set [1] the test system is rat. The settings on record: Carcinogenicity; other; Oral; Gavage/Intubation; dose end: 78 week; group: systemic; systemic / in life observation / body weight / body weight gain + systemic / pathology microscopic / kidney / nephropathy + systemic / ….
Data set [2] concerns mouse. To be noted: Carcinogenicity, b6c3f1, Oral, Gavage/Intubation, dose end: 60 week, group: systemic.
Data set [3] relates to rat. The settings on record: Subchronic oral toxicity in rodents, sprague dawley, Feed, dose end: 13 week, group: systemic.
Data set [4] concerns rat. To be noted: Prenatal developmental toxicity study, other, Oral, Gavage/Intubation, dose end: 15 GD.
Data set [5] has as its system rabbit. To be noted: Prenatal developmental toxicity study, new zealand white, Oral, Gavage/Intubation, dose end: 19 GD.
Data set [6] deals with rat. The settings on record: Prenatal developmental toxicity study, sprague dawley, Oral, Feed, dose end: 15 GD.
Data set [7] deals with mouse. The settings on record: Subchronic oral toxicity in rodents, b6c3f1, Feed, dose end: 91 day, group: systemic, systemic / in life observation / body weight / body weight gain.
For data set [8], the system named is mouse. The settings on record: Carcinogenicity; b6c3f1; Oral; Feed; dose end: 2 year; group: systemic; systemic / in life observation / body weight / body weight.
In data set [9] the test system is rat. The settings on record: Multigenerational reproductive toxicity study, other, Oral, Gavage/Intubation, dose end: 2 generation.
The subject of data set [10] is rat. To be noted: Combined chronic toxicity/carcinogenicity, fischer, Oral, Feed, dose end: 2 year, group: systemic.
For data set [11], the system named is rat. The settings on record: Fertility (Segment I), fischer, Oral, Feed, dose end: 16 weeks (premating).
Data set [12] has as its system mouse. The settings on record: Prenatal developmental toxicity study, cd1, Oral, Feed, dose end: 15 GD.
Data set [13] has as its system rat. The settings on record: Subchronic oral toxicity in rodents, fischer, Feed, dose end: 26 week, group: systemic.
Data set [14] deals with rat. To be noted: Combined chronic toxicity/carcinogenicity, fischer, Oral, Feed, dose end: 2 year, group: systemic. This is another data set of the same source.
For data set [15], the system named is rat. The settings on record: Multigenerational reproductive toxicity study, other, Oral, Gavage/Intubation, dose end: 2 generation. The source holds these as a separate data set.
Data set [16] relates to dog. To be noted: Chronic toxicity, beagle, Injection, Subcutaneous, dose end: 74 week, group: systemic.
Data set [17] has as its system rat. To be noted: Developmental neurotoxicity study; wistar; Oral; Water; dose end: 60 PND; group: cannot be grouped; systemic / in life observation / body weight / offspring (pup) weight gain.
Data set [18] concerns rat. The settings on record: Developmental neurotoxicity study; other; Injection; Intraperitoneal; dose end: 141 PND; group: cannot be grouped; systemic / clinical chemistry / norepinephrine (noradrenaline) / norepinephrine (noradrenaline) + systemic / in life observation / water ….
[19] abbreviates: systemic / pathology microscopic / kidney / nephropathy.
Where [20] appears, read: systemic / pathology microscopic / kidney / nephropathy + systemic / pathology microscopic / stomach / squamous cell carcinoma + systemic / ….
Setting [21] is: systemic / clinical chemistry / alanine aminotransferase (alt/sgpt) / alanine aminotransferase (alt/sgpt) + systemic / clinical chemistry / ….
Where [22] appears, read: systemic / urinalysis / appearance and color / appearance and color + systemic / organ weight / liver / relative to body weight.
[23] abbreviates: group: developmental, developmental / developmental malformation / bone / incomplete ossification + developmental / developmental malformation / bone / unossified.
The mark [24] stands for this setting: group: maternal, reproductive / reproductive performance / aborted / aborted + systemic / in life observation / body weight / body weight + systemic / in ….
The mark [25] stands for this setting: group: developmental, developmental / developmental malformation / general / [other] + developmental / developmental malformation / bone / arthrogryposis + ….
[26] abbreviates: group: maternal, systemic / in life observation / body weight / body weight + systemic / in life observation / food consumption / food efficiency + systemic….
[27] abbreviates: group: developmental, developmental / developmental malformation / bone / [other] + developmental / developmental malformation / bone / bipartite ossification + ….
Setting [28] is: group: maternal, reproductive / reproductive performance / resorptions / resorptions + systemic / in life observation / body weight / body weight + systemic….
Setting [29] is: group: offspring, systemic / clinical chemistry / triiodothyronine (t3) / triiodothyronine (t3), total + systemic / in life observation / body weight / ….
Where [30] appears, read: group: parental, systemic / in life observation / clinical signs / salivation + systemic / organ weight / kidney / absolute + systemic / organ weight / ….
[31] abbreviates: group: reproductive, reproductive / offspring survival early / live fetuses / live fetuses.
Setting [32] is: systemic / organ weight / kidney / relative to body weight.
The mark [33] stands for this setting: group: maternal, reproductive / reproductive performance / fertility / fertility.
[34] abbreviates: group: parental, systemic / hematology / erythrocyte (rbc) count differential / erythrocyte (rbc) + systemic / hematology / hemoglobin (hgb) / hemoglobin (….
The mark [35] stands for this setting: group: developmental, developmental / developmental malformation / bone / exencephaly + developmental / developmental malformation / bone / [other] + ….
[36] abbreviates: group: maternal, reproductive / offspring survival early / litter size / litter size + reproductive / offspring survival early / live fetuses / live fetuses….
Setting [37] is: systemic / hematology / anemia / anemia - macrocytic + systemic / hematology / erythrocyte (rbc) count differential / erythrocyte (rbc) + ….
Where [38] appears, read: systemic / in life observation / body weight / body weight + systemic / in life observation / food consumption / food consumption + systemic….
Setting [39] is: systemic / pathology gross / full gross necropsy / leukemia mononuclear + systemic / in life observation / body weight / body weight + ….
Where [40] appears, read: group: offspring, developmental / developmental landmark / anogenital distance (agd) / anogenital distance (agd).
[41] abbreviates: group: reproductive, reproductive / reproductive performance / fertility / fertility.
[42] abbreviates: systemic / clinical chemistry / cholesterol / cholesterol + systemic / clinical chemistry / glucose / glucose + systemic / hematology / [….
[43] abbreviates: systemic / clinical chemistry / cholesterol / cholesterol + systemic / hematology / [other] / [other] + systemic / hematology / hematocrit (….

A value given as a limit tells only on which side of the number the result lay.

This is an account of results in EPA's ToxRefDB 2.

Broadly, the LOAEL is the lowest tested level that showed an adverse finding. As a reminder, the NOAEL is the highest dose or exposure tested at which no adverse effect was seen. On to `ClCC(Br)CBr` (stereo not drawn) [1,2-Dibromo-3-chloropropane], for which, in [1], the LEL came out at 15 mg/kg/day, the LOAEL turned out to be 15 mg/kg/day, the NEL is under 15 mg/kg/day and the NOAEL was under 15 mg/kg/day. Moreover, in [2] (setting [19]), the LOAEL came to 110 mg/kg/day and the NOAEL was under 110 mg/kg/day. In data set [2] (setting [20]), the LEL worked out at 110 mg/kg/day and the NEL was under 110 mg/kg/day.

As to `CCC(C)Nc1c([N+](=O)[O-])cc(C(C)(C)C)cc1[N+](=O)[O-]` (stereo not drawn) [Butralin], the LOAEL turned out to be 50 mg/kg/day in data set [3] (setting [21]); 500 mg/kg/day in [4] (setting [23]); 1250 mg/kg/day in data set [4] (setting [24]); 45 mg/kg/day in [5] (group: developmental, developmental / developmental malformation / general / [other]); 135 mg/kg/day in data set [5] (group: maternal, systemic / in life observation / body weight / body weight + systemic / in life observation / food consumption / food efficiency). For the same molecule, the NOAEL is 10 mg/kg/day in data set [3] (setting [21]); under 500 mg/kg/day in [4] (setting [23]); 500 mg/kg/day in data set [4] (setting [24]); 15 mg/kg/day in data set [5] (setting [25]); 45 mg/kg/day in data set [5] (setting [26]). The LEL came to 10 mg/kg/day in data set [3] (setting [22]); 500 mg/kg/day in data set [4] (setting [23]); 1250 mg/kg/day in data set [4] (setting [24]); 45 mg/kg/day in data set [5] (setting [25]); 135 mg/kg/day in [5] (setting [26]). Also, the NEL in [3] (setting [22]) is under 10 mg/kg/day; in data set [4] (setting [23]), under 500 mg/kg/day; in [4] (setting [24]), 500 mg/kg/day; in data set [5] (setting [25]), 15 mg/kg/day; in [5] (setting [26]) it was 45 mg/kg/day.

For the molecule `CCCCOC(=O)c1ccccc1C(=O)OCc1ccccc1` [Butyl benzyl phthalate], the LOAEL is over 1640 mg/kg/day in [6] (setting [27]); over 1640 mg/kg/day in data set [6] (setting [28]); over 3750 mg/kg/day in data set [7]; 900 mg/kg/day in data set [8]; over 500 mg/kg/day in [9] (setting [29]); over 500 mg/kg/day in data set [9] (setting [30]). In addition, the LOAEL was over 500 mg/kg/day in data set [9] (setting [31]); 500 mg/kg/day in data set [10] (systemic / in life observation / body weight / body weight + systemic / pathology microscopic / pancreas / hyperplasia); over 2200 mg/kg/day in data set [11] (setting [33]); over 2200 mg/kg/day in [11] (setting [34]); over 2330 mg/kg/day in data set [12] (setting [35]); over 2330 mg/kg/day in [12] (setting [36]). Also, the LOAEL is 1250 mg/kg/day in data set [13] (setting [37]); over 600 mg/kg/day in data set [14] (setting [39]); 100 mg/kg/day in data set [15] (setting [40]); over 400 mg/kg/day in data set [15] (setting [30]); over 400 mg/kg/day in data set [15] (setting [41]). Moreover, the NEL is 420 mg/kg/day in [6] (setting [27]); 420 mg/kg/day in data set [6] (setting [28]); under 240 mg/kg/day in data set [7]; under 900 mg/kg/day in data set [8]; 20 mg/kg/day in data set [9] (setting [29]); 20 mg/kg/day in data set [9] (setting [30]). Besides, the NEL in data set [9] (setting [31]) was 100 mg/kg/day; in [10] (setting [32]), under 120 mg/kg/day; in data set [11] (setting [33]), 200 mg/kg/day; in data set [11] (setting [34]), 20 mg/kg/day; in [12] (setting [35]), 182 mg/kg/day; in data set [12] (setting [36]), 182 mg/kg/day. In addition, the NEL in data set [13] (setting [37]) was 60 mg/kg/day; in [14] (setting [38]), under 300 mg/kg/day; in data set [15] (setting [40]) it was under 100 mg/kg/day; in data set [15] (setting [30]), 100 mg/kg/day; in data set [15] (setting [41]), 200 mg/kg/day. Moreover, the NOAEL in data set [6] (setting [27]) is at least 1640 mg/kg/day; in data set [6] (setting [28]) it was at least 1640 mg/kg/day; in data set [7], at least 3750 mg/kg/day; in [8], under 900 mg/kg/day; in data set [9] (setting [29]) it was at least 500 mg/kg/day; in data set [9] (setting [30]), at least 500 mg/kg/day. Besides, the NOAEL in data set [9] (setting [31]) was at least 500 mg/kg/day; in data set [10] (systemic / in life observation / body weight / body weight + systemic / pathology microscopic / pancreas / hyperplasia + systemic / …), 240 mg/kg/day; in data set [11] (setting [33]), at least 2200 mg/kg/day; in data set [11] (setting [34]) it was at least 2200 mg/kg/day; in data set [12] (setting [35]) it was at least 2330 mg/kg/day; in [12] (setting [36]) it was at least 2330 mg/kg/day. Further, the NOAEL is 550 mg/kg/day in [13] (setting [37]); at least 600 mg/kg/day in data set [14] (setting [39]); under 100 mg/kg/day in [15] (setting [40]); at least 400 mg/kg/day in data set [15] (setting [30]); at least 400 mg/kg/day in data set [15] (setting [41]). The LEL turned out to be 1100 mg/kg/day in [6] (group: developmental, developmental / developmental malformation / bone / short supernumerary); 1100 mg/kg/day in [6] (group: maternal, systemic / in life observation / body weight / body weight + systemic / in life observation / body weight / body weight gain + systemic / in…); 240 mg/kg/day in data set [7]; 900 mg/kg/day in data set [8]; 100 mg/kg/day in data set [9] (setting [29]); 100 mg/kg/day in data set [9] (setting [30]). The LEL worked out at 500 mg/kg/day in data set [9] (setting [31]); 120 mg/kg/day in data set [10] (setting [32]); 2200 mg/kg/day in [11] (setting [33]); 200 mg/kg/day in data set [11] (group: parental, systemic / pathology gross / sperm measure / sperm count); 910 mg/kg/day in data set [12] (group: developmental, developmental / developmental malformation / bone / exencephaly); 910 mg/kg/day in data set [12] (group: maternal, reproductive / offspring survival early / litter size / litter size + reproductive / offspring survival early / live fetuses / live fetuses). For the same molecule, the LEL in data set [13] (systemic / hematology / erythrocyte (rbc) count differential / erythrocyte (rbc)) is 180 mg/kg/day; in data set [14] (setting [38]) it was 300 mg/kg/day; in [15] (setting [40]) it was 100 mg/kg/day; in data set [15] (group: parental, systemic / in life observation / clinical signs / salivation + systemic / organ weight / kidney / absolute + systemic / organ weight / liver…), 200 mg/kg/day; in [15] (setting [41]) it was 400 mg/kg/day.

For the molecule `CC(=O)[C@H]1CC[C@H]2[C@@H]3CCC4=CC(=O)CC[C@]4(C)[C@H]3CC[C@]12C` [Progesterone], in data set [16] (setting [42]), the LOAEL is over 22.5 mg/kg/day and the no-observed-adverse-effect level (NOAEL) is at least 22.5 mg/kg/day. In addition, in data set [16] (setting [43]), the LEL is 2.5 mg/kg/day and the NEL was under 2.5 mg/kg/day.

In data set [17], `CC(C)NCC(O)COc1cccc2ccccc12.Cl` (stereo not drawn) [Propranolol hydrochloride] returned an LEL of 10 mg/kg/day, an LOAEL of over 10 mg/kg/day, an NEL of under 10 mg/kg/day and a no observed adverse effect level (NOAEL) of at least 10 mg/kg/day. Moreover, in data set [18], the LEL worked out at 5 mg/kg/day, the LOAEL is over 5 mg/kg/day, the NEL is under 5 mg/kg/day and the NOAEL is at least 5 mg/kg/day.
